Experimental data published in ChEMBL document CHEMBL5696442, “Discovery of type II inhibitors of TGFβ-activated kinase 1 (TAK1) and mitogen-activated protein kinase kinase kinase kinase 2 (MAP4K2)” (J Med Chem, 2015).
Calls of active or inactive are those of the source. The rule behind the calls is not given here.

What was measured:
[1] = molecular target: Serine/threonine-protein kinase BRSK2 (Homo sapiens) (UniProt Q8IWQ3); assay: Inhibition of BRSK2 (unknown origin) at 10 uM by Ambit Kinomescan binding assay
[2] = molecular target: Serine/threonine-protein kinase MRCK gamma (Homo sapiens) (UniProt Q6DT37); assay: Inhibition of DMPK2 (unknown origin) at 10 uM by Ambit Kinomescan binding assay
[3] = molecular target: Leukocyte tyrosine kinase receptor (Homo sapiens) (UniProt P29376); assay: Inhibition of LTK (unknown origin) at 10 uM by Ambit Kinomescan binding assay relative to control
[4] = molecular target: Ribosomal protein S6 kinase alpha-1 (Homo sapiens) (UniProt Q15418); assay: Inhibition of RSK1 domain1 Lys1 labeling site in human A-375 cells at 0.5 uM by KiNativ Profiling analysis relative to control; type: cell-based
[5] = molecular target: Tyrosine-protein kinase Yes (Homo sapiens) (UniProt P07947); assay: Inhibition of YES ACT labeling site in human Huh-7 cells at 10 uM by KiNativ Profiling analysis relative to control; type: cell-based
[6] = molecular target: c-Jun N-terminal kinase, JNK (Homo sapiens) (UniProt P45983+P53779+P45984); assay: Inhibition of JNK1/2/3 K2 labeling site in human Huh-7 cells at 1 uM by KiNativ Profiling analysis relative to control; type: cell-based
[7] = molecular target: Glycogen synthase kinase-3 beta (Homo sapiens) (UniProt P49841); assay: Inhibition of GSK3B K2 labeling site in human Huh-7 cells at 1 uM by KiNativ Profiling analysis relative to control; type: cell-based
Sequence of Glycogen synthase kinase-3 beta (Homo sapiens) (P49841 whole entry, looked up): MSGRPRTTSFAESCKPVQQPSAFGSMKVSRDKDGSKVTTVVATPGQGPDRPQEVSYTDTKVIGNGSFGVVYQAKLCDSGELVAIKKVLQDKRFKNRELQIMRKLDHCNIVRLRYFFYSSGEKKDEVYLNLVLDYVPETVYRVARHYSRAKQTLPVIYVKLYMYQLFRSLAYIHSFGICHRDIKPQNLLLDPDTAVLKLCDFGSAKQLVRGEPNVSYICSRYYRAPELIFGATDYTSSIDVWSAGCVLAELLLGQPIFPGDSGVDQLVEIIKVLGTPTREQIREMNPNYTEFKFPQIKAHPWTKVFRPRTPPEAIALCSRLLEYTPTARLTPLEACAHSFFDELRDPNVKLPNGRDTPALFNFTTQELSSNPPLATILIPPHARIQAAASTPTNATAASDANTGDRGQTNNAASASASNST

[8] = molecular target: PKC alpha and beta-2 (Homo sapiens) (UniProt P17252+P05771); assay: Inhibition of PKCalpha/beta K2 labeling site in human Huh-7 cells at 1 uM by KiNativ Profiling analysis relative to control; type: cell-based
[9] = molecular target: Cyclin-dependent kinase 14 (Homo sapiens) (UniProt O94921); assay: Inhibition of PFTAIRE1 Lys1 labeling site in human A-375 cells at 5 uM by KiNativ Profiling analysis relative to control
Sequence of Cyclin-dependent kinase 14 (Homo sapiens) (O94921 whole entry, looked up): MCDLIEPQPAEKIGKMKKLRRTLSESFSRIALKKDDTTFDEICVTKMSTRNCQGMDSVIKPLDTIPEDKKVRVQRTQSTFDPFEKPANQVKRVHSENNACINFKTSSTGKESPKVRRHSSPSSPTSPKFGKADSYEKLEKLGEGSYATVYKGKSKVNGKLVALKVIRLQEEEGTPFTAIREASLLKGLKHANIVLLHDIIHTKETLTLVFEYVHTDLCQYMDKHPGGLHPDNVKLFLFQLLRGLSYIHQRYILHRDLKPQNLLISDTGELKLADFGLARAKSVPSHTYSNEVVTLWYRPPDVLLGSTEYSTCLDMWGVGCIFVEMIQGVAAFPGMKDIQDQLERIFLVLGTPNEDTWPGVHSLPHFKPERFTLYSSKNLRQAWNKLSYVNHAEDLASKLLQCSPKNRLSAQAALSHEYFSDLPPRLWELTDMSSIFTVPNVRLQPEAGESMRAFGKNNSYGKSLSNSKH

[10] = molecular target: STE20-like serine/threonine-protein kinase (Homo sapiens) (UniProt Q9H2G2); assay: Inhibition of SLK (unknown origin) at 10 uM by Ambit Kinomescan binding assay relative to control; values are per cent of control
[11] = molecular target: Serine/threonine-protein kinase ATR (Homo sapiens) (UniProt Q13535); assay: Inhibition of ATR in human Huh-7 cell lysate at 1 uM by KiNativ Profiling analysis relative to control; type: subcellular
[12] = molecular target: Aurora kinase B (Homo sapiens) (UniProt Q96GD4); assay: Inhibition of AurB ATP labeling site in human Huh-7 cell lysate at 1 uM by KiNativ Profiling analysis relative to control; type: subcellular
Sequence of Aurora kinase B (Homo sapiens) (Q96GD4 whole entry): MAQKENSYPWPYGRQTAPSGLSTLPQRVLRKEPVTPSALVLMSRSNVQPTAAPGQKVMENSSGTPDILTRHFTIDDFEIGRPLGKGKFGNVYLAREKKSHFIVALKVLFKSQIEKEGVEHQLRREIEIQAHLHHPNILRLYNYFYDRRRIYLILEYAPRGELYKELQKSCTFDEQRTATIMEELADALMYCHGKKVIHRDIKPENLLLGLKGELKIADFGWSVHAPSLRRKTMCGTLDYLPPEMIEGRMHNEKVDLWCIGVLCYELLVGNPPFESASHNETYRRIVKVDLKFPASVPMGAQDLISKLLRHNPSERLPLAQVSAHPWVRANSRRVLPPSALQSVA

[13] = molecular target: T1, Dual specificity mitogen-activated protein kinase kinase 3 (Homo sapiens) (UniProt P46734); assay: Inhibition of MAP2K3 ACT labeling site in human Huh-7 cell lysate at 1 uM by KiNativ Profiling analysis relative to control; type: subcellular
T1 sequence (whole entry): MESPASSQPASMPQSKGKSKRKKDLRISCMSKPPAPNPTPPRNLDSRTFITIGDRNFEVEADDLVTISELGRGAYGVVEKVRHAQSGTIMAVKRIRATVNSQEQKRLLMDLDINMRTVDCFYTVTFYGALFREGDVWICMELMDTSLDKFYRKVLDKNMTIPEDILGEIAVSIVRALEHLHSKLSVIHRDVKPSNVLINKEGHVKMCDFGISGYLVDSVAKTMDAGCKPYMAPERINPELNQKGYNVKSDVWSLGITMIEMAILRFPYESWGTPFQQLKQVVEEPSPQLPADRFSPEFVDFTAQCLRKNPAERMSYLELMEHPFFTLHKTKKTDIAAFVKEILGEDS

[14] = molecular target: Mitogen-activated protein kinase kinase kinase 4 (Homo sapiens) (UniProt Q9Y6R4); assay: Inhibition of MAP3K4 Lys1 labeling site in human Huh-7 cell lysate at 1 uM by KiNativ Profiling analysis relative to control; type: subcellular
[15] = molecular target: Dual specificity mitogen-activated protein kinase kinase 1 (Homo sapiens) (UniProt Q02750); assay: Inhibition of MAP2K1 Lys2 labeling site harbouring IMHRDVKPSNILVNSR in human Huh-7 cells at 1 uM by KiNativ Profiling analysis relative to control; type: cell-based
[16] = molecular target: Serine/threonine-protein kinase WNK1 (Homo sapiens) (UniProt Q9H4A3); assay: Inhibition of Wnk1 ACT labeling site in human Huh-7 cells at 1 uM by KiNativ Profiling analysis relative to control; type: cell-based
Sequence of Serine/threonine-protein kinase WNK1 (Homo sapiens) (Q9H4A3 whole entry, looked up): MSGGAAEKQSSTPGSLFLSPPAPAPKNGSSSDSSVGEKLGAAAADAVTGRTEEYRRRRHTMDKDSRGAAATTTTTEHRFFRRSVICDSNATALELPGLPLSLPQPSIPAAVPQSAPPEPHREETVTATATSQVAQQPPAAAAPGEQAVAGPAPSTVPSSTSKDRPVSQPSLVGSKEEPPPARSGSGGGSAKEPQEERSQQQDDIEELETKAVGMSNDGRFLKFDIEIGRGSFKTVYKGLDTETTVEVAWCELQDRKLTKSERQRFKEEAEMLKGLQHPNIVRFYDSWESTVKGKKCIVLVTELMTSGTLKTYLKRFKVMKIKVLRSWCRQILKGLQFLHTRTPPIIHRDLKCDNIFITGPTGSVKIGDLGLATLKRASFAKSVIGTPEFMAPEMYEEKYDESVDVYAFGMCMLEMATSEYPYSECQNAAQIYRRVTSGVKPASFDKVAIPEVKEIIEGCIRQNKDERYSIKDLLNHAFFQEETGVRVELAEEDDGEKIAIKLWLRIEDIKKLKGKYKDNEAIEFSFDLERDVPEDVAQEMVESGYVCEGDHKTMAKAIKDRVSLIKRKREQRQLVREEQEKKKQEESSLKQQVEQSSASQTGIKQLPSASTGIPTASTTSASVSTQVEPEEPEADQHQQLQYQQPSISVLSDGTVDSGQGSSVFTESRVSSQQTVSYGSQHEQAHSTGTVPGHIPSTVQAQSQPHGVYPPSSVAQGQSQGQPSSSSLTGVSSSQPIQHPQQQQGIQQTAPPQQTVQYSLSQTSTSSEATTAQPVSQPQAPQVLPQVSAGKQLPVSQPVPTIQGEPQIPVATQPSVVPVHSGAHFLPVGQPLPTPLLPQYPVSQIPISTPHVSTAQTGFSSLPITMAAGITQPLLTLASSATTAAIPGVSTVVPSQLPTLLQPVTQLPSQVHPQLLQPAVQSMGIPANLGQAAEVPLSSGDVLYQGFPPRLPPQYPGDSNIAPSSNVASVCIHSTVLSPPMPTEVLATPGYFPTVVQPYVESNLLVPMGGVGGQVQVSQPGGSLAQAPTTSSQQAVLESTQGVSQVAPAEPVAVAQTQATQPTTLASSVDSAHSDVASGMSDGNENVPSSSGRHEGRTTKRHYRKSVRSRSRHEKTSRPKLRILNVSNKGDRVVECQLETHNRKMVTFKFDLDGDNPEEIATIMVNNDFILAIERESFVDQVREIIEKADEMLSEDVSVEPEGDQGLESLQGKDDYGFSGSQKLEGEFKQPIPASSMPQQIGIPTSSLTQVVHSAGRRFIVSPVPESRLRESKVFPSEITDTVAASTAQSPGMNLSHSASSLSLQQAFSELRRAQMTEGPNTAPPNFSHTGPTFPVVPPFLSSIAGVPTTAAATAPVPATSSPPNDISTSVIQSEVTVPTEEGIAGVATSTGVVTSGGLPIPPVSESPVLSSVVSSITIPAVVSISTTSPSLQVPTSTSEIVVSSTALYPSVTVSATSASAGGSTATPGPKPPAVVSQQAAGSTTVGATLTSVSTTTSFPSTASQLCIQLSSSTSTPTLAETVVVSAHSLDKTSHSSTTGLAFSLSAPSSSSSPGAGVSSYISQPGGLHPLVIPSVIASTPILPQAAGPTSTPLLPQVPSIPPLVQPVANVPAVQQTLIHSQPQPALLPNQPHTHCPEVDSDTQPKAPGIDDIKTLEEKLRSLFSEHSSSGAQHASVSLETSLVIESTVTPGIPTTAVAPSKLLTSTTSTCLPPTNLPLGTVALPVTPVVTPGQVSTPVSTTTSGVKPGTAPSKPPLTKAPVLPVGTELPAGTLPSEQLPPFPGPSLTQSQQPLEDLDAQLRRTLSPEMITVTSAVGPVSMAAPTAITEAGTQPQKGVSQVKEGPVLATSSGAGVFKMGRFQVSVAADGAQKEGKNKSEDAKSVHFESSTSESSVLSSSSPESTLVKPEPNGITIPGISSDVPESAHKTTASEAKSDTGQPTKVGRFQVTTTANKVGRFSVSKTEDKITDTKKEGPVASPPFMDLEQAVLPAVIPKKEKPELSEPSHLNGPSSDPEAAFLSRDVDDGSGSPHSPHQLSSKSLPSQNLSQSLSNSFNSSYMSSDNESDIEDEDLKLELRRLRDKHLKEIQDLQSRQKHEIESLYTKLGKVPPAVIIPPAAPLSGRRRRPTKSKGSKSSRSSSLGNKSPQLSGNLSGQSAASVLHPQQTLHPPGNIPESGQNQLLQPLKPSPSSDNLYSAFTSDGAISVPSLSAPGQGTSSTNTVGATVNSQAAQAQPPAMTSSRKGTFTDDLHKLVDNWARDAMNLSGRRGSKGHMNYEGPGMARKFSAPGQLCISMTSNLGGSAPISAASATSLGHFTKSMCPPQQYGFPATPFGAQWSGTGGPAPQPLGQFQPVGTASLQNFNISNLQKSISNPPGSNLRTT

[17] = molecular target: 5'-AMP-activated protein kinase catalytic subunit alpha-1 (Homo sapiens) (UniProt Q13131); assay: Inhibition of AMPKa1 Lys1 labeling site in human A-375 cells at 0.5 uM by KiNativ Profiling analysis relative to control; type: cell-based
Sequence of 5'-AMP-activated protein kinase catalytic subunit alpha-1 (Homo sapiens) (Q13131 whole entry, looked up): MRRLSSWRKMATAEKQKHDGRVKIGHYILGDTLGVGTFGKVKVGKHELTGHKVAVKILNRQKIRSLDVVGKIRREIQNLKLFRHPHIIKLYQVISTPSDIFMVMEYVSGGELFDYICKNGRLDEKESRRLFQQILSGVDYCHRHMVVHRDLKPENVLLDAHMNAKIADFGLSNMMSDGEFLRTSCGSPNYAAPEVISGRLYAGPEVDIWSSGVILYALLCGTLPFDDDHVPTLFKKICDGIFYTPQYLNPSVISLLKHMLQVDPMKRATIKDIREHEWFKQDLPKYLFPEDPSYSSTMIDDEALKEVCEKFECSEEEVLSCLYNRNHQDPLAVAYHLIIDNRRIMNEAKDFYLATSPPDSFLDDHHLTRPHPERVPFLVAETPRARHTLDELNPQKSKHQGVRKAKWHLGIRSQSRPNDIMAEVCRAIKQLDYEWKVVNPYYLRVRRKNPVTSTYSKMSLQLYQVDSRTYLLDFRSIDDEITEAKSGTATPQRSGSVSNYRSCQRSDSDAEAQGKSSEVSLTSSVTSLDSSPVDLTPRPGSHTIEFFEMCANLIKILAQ

[18] = molecular target: Tyrosine-protein kinase receptor UFO (Homo sapiens) (UniProt P30530); assay: Inhibition of AXL (unknown origin) at 1 uM by Ambit Kinomescan binding assay relative to control; values are per cent of control
Sequence of Tyrosine-protein kinase receptor UFO (Homo sapiens) (P30530 whole entry): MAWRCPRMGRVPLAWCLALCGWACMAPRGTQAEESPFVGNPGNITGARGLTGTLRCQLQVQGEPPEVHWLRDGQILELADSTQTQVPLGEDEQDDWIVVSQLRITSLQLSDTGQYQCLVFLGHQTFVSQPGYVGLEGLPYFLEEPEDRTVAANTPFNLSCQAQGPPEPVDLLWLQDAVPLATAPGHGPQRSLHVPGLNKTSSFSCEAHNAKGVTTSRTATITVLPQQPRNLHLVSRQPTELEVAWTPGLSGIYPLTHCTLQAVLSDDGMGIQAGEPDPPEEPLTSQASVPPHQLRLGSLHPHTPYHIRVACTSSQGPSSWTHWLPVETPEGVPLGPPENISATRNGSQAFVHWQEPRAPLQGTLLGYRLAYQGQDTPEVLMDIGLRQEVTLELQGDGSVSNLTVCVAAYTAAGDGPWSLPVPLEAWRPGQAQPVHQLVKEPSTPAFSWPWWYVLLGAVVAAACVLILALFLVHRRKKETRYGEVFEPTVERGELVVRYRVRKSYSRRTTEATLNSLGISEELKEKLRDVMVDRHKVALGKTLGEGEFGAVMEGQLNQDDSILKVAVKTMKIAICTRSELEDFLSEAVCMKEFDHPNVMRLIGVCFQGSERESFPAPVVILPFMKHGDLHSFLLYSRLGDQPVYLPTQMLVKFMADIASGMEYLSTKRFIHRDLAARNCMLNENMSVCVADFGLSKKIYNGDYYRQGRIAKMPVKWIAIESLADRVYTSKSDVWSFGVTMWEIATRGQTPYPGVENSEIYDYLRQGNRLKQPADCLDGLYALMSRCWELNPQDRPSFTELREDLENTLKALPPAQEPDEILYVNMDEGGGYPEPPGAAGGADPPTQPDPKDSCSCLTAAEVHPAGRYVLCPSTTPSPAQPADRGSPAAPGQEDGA

[19] = molecular target: Tyrosine-protein kinase Lyn (Homo sapiens, UniProt P07948); assay: Inhibition of LYN (unknown origin) at 1 uM by Ambit Kinomescan binding assay relative to control; values are per cent of control
[20] = molecular target: Ephrin type-B receptor 6 (Homo sapiens) (UniProt O15197); assay: Inhibition of EPHB6 (unknown origin) at 1 uM by Ambit Kinomescan binding assay relative to control; values are per cent of control

CCN1CCN(Cc2ccc(NC(=O)c3ccc(C)c(Oc4ccnc5[nH]ccc45)c3)cc2C(F)(F)F)CC1
inhibition [1]: inactive | inhibition [2]: inactive | inhibition [3]: 1.2% | inhibition [4]: -0.7% | inhibition [5]: 25.2% | inhibition [6]: 29.4% | inhibition [7]: 2.9% | inhibition [8]: 8.8% | inhibition [9]: 81% | residual activity [10]: 2%

CNc1cc(Oc2cc(C(=O)Nc3cc(N4CCN(C)CC4)cc(C(F)(F)F)c3)ccc2C)ncn1
inhibition [11]: 22.6% | inhibition [12]: 2.5% | inhibition [13]: 0.6% | inhibition [14]: -1.7% | inhibition [15]: 16.6% | inhibition [16]: 21.6%

CCN1CCN(Cc2ccc(NC(=O)c3ccc(C)c(/C=C/c4cnc5[nH]ccc5c4OC)c3)cc2C(F)(F)F)CC1
inhibition [17]: 20.3% | residual activity [18]: 55% | % of control [19]: 0.45% | residual activity [20]: 2.8%
